Test results as given in patent publication US20110009435A1, “HETERO BICYCLIC CARBOXAMIDE DERIVATIVES AND THEIR PHARMACEUTICAL USE AND COMPOSITIONS” (Pfizer, Inc., priority 2007, published 2011).

What was measured:
Human recombinant MMP-7 = target: T1, Human recombinant MMP-7 (Homo sapiens, UniProt P09237); assay: In vitro MMP inhibition assay, MMP-7 (fluorogenic peptide substrate cleavage, Ki); type: biochemical; settings: human MMP-7 (CD); read-out: hMMP Ki 07/CD
T1 construct: 07/CD; made in house
T1 sequence (P09237 95-267): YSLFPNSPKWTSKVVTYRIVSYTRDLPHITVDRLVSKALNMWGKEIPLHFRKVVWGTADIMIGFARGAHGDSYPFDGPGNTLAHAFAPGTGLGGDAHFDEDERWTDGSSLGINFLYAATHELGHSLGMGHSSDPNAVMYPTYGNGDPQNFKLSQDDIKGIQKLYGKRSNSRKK
Experimental: (§1) Matrix Metalloproteinase inhibitor compounds were analyzed in in vitro MMP Inhibition assays to determine their ability to inhibit the MMP cleavage of peptide substrates. Inhibition constants (Ki) were calculated from the assayed compound-MMP interactions.
(§2) Human recombinant MMP-1, MMP-2, MMP-3, MMP-7, MMP-9, MMP-12, MMP-13, MMP-14 and MMP-15 were used in these assays. The enzymes are prepared following known laboratory procedures. Protocols for the preparation and use of these enzymes are available in the scientific literature. See, e.g., Enzyme Nomenclature (Academic Press, San Diego, Calif., 1992) and the citations therein. See also Frije et al., J. Biol. Chem., 26(24), 16766-73 (1994).
The MMP-7 cDNA may be used to express the enzyme in E. coli inclusion bodies. Then the enzyme is solubilized in urea, purified on a preparative […] reverse phase HPLC column, and refolded in the presence of zinc acetate and purified for use. […]
(§3) The inhibitors are analyzed using a single low enzyme concentration with a single substrate concentration fixed at or below the Km. […] Apparent inhibitory constants are determined by non-linear regression of reaction velocity as a function of inhibitor and enzyme concentration using Morrison's equation, as described by Kuzmic, Anal. Biochem. 286, 45-50 (2000). […]

Human recombinant MMP-1 = target: T2, Human recombinant MMP-1 (Homo sapiens, UniProt P03956); assay: In vitro MMP inhibition assay, MMP-1 (fluorogenic peptide substrate cleavage, Ki); type: biochemical; settings: human MMP-1, full length (FL); read-out: hMMP Ki 01/FL
T2 construct: made in house; host or cells: MMP-1-transfected HT-1080 cells
T2 sequence (P03956 100-469): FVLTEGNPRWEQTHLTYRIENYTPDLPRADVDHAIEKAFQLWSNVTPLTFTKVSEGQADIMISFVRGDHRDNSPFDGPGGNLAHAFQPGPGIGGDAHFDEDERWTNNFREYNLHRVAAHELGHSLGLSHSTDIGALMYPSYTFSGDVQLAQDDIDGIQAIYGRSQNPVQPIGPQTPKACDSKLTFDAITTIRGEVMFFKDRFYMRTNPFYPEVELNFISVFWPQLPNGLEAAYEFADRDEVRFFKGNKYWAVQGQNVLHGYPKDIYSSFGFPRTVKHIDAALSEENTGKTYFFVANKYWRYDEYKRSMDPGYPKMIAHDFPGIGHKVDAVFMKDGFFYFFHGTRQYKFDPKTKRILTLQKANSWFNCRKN
Experimental: as §1, §2
The MMP-1 proenzyme may be purified from spent media of MMP-1-transfected HT-1080 cells and the protein purified on a zinc chelating column. The MMP-2 proenzyme may be purified by gelatin Sepharose chromatography from MMP-2-transfected p2AHT2 cells. […]
as §3

- Ki (Human recombinant MMP-7): > 10 µM
- Ki (Human recombinant MMP-1): > 10 µM
SMILES: COc1cccc(CNC(=O)c2nc3ccc(F)c(OCCC4CCN(C(=O)CO)CC4)c3c(=O)[nH]2)c1 [Example 34, 6-fluoro-5-[2-(1-glycoloylpiperidin-4-yl)ethoxy]-N-(3-methoxybenzyl)-4-oxo-3,4-dihydroquinazoline-2-carboxamide]
